The values that follow come from PMC8838787, “The Antiproliferative and Apoptotic Effects of a Novel Quinazoline Carrying Substituted-Sulfonamides: In Vitro and Molecular Docking Study” (Molecules, 2022).

In one assay the test system is caspase 7. Briefly: RT-PCR of apoptotic genes, caspase 7. The assay is classed as cell-based, human. As to conditions: 24 h, relative to untreated cells. From the text: (§1) We next used reverse transcription polymerase chain reaction (RT-PCR) and Western blot analysis to look at Bax (proapoptotic), Bcl-2 (antiapoptotic) and caspase 7 (executioner caspase) expression at gene and protein level as an additional marker of apoptosis occurrence. In fact, apoptotic cell death is mostly directed by the levels of Bcl-2 family, whether they are pro-apoptotic or antiapoptotic and targeting these molecules as a therapeutic strategy is continuously under development. As predicted, we observed an upregulation in the expression of Bax in MCF-7 treated cells to (1.7-, 2- and 2.4-fold) with compound 4d and to (1.2-, 1.4- and 1.6-fold) with compound 4f at (1.25, 2.5 and 5 µM) respectively (Figure 6). […] This shifting in Bax to Bcl-2 ratio usually started caspases activation which plays a critical role in apoptosis execution. Among all caspases, caspase 7 is considered as one of the most crucial executioner caspases that mediate cell death, and its expression strongly correlates with apoptosis stimulation.
(§2) The MCF-7 cells (0.1 × 10^6) in 12 well plates were treated with different concentrations of compounds 4d and 4f for 24 h and untreated cells were used as a control. After 24 h of treatment, cell culture media was removed and the cells were lysed with Trizol (Invitrogen, Waltham, MA, USA), and total RNA was extracted from all the samples [42]. The RNA was estimated by Nano-drop and 1 µg of RNA was used in the cDNA synthesis. The cDNA was synthesized from RNA by using a cDNA synthesis kit (Invitrogen, Thermo Fisher Scientific, lnc., Waltham, MA, USA) according to the manufacturer’s instruction. After Reverse transcription at 42 °C for 60 min, RT-PCR was performed using 5× Firepol Master Mix ready to load (Solis BioDyne) according to manufacturer’s instruction. RT-PCR was used to analyze the gene expression level of P53, Bcl2, Bax and caspase 7 using specific sets of primers for each gene, while β-actin was utilized as a housekeeping gene. The program was run as follows, initial denaturation at 95 °C for 5 min; denaturation at 95 °C for 30 s; annealing at 55 °C for 45 s; elongation at 72 °C for 45 s (30 Cycles) and final extension at 72 °C for 10 min. The RT-PCR products were electrophoresed on a 1.2% agarose gel containing ethidium bromide and the gel was imaged on a Licor machine.

Assay [1] relates to Bcl-2. In words: Western blot, Bcl-2 protein. The assay is classed as cell-based, human. The note with it: MCF-7, 1.25, 2.5 and 5 μM, 24 h, vs control cells.
Source text: as §1, with “Among all caspases, caspase 7 is considered as one of the most crucial executioner caspases that mediate cell death, and its expression strongly correlates with apoptosis stimulation.” left out
MCF-7 cells were plated in six well plates at the density of 0.5 × 10^6 and kept for adherence for overnight. […] Total protein was measured by using Bio-Rad Bradford kit and then 35 µg of the total protein was run on a 12% SDS-PAGE and transferred to a nitrocellulose membrane. […] After incubation, membranes were washed three times with TBST buffer and then were ready for immunodetection. […]

Assay [2] concerns Bcl-2. Briefly: RT-PCR of apoptotic genes, Bcl-2. The assay is classed as cell-based, human. As to conditions: 24 h, vs DMSO-vehicle treated cells.
Source text: as §1, §2

The subject of another assay is HUVEC normal cells. Briefly: MTT cell viability assay, normal HUVEC. The class given is cell-based. The note with it: Homo sapiens, 48 h, average ± SD (n = 3). As to the method:
Compounds 4a–n were subjected to the cytotoxicity screening of the cell lines MCF-7 (breast), LoVo (colon), HepG2 (liver) and A549 (lung) carcinoma cells as well as HUVEC normal cell lines. The MTT assay was employed to assess cytotoxicity after 48 h of treatment with different concentrations of each compound and doxorubicin was used as a reference drug. The results were presented in Table 1 as growth inhibitory concentration (IC50 values).
Cell viability was determined using 3-(4,5-dimethylthiazol-2-yl)-2,5-diphenyl tetrazolium bromide (MTT) assay as stated previously. In brief, A549 (lung), HepG2 (liver), LoVo (colon), MCF-7 (breast) cancer cells as well as normal cells (HUVEC) were seeded in 96-well plates (10^5 per well) and compounds were added in a different final concentration. All cells were treated for 48 h, and then 10μL of MTT reagent (5 mg/mL) was added to each well and further incubated for 4 h. Thereafter, 0.1 mL of acidified isopropanol was added to solubilize formazan product and the developed color was measured at 570 nm in Microplate ELISA Reader (BioTek, Elx-800, Winooski, VT, USA). The IC50 values (concentration required for 50% inhibition of cell viability) were calculated using dose response curve. Cell viability was calculated as = (Ab Treated/Ab Control) × 100.
The A549, HepG2, LoVo and MCF-7 cancer cell lines were obtained from the German Collection of Microorganisms and Cell Cultures (DSMZ) (Braunschweig, Germany). For Human umbilical vein endothelial cells (HUVEC cells), it was purchased from American Type Culture Collection (16549; Cat no. PCS-100-010; ATTCC, Manassas, VA, USA).
Background: Tetrazolium dyes change colour on reduction, which living cells bring about.

The IC50 is the midpoint of a concentration-inhibition curve. A lower IC50 goes with inhibition by little substance.

As to `CCc1cccc(NC(=O)CNS(=O)(=O)c2ccc(-n3c(SCC(=O)Nc4cccc(CC)c4)nc4c(OC)cccc4c3=O)cc2)c1` [Compound 4f, N-(3-ethylphenyl)-2-((3-(4-(N-(2-((3-ethylphenyl)amino)-2-oxoethyl)sulfamoyl)-phe-nyl)-8-methoxy-4-oxo-3,4-dihydroquinazolin-2yl)thio)acetamide], the “expression of caspase 7 (RT-PCR)” value came to 1.35 fold with caspase 7 (MCF-7, 2.5 µM) and 1.58 fold with caspase 7 (MCF-7, 5 µM). For the same molecule, the “expression of Bcl-2 protein (Western blot, in words)” value in the assay on Bcl-2 [1] is “downregulated in a dose-dependent manner”. The “Bcl-2 expression (RT-PCR)” value in the assay on Bcl-2 [2] (MCF-7, 1.25 µM) came out at 0.92 fold; in the assay on Bcl-2 [2] (MCF-7, 2.5 µM), 0.68 fold; in the assay on Bcl-2 [2] (MCF-7, 5 µM), 0.62 fold. For the same molecule, the IC50 with HUVEC normal cells is 17.9 ± 0.6 µM.

As to `COc1cccc2c(=O)n(-c3ccc(S(=O)(=O)NCC(=O)Nc4ccc(C)cc4)cc3)c(SCC(=O)Nc3ccc(C)cc3)nc12` [Compound 4d], the “expression of caspase 7 (RT-PCR)” value with caspase 7 (MCF-7, 2.5 µM) amounted to 1.35 fold; with caspase 7 (MCF-7, 5 µM) it was 1.58 fold. Moreover, the “expression of Bcl-2 protein (Western blot, in words)” value in the assay on Bcl-2 [1] is recorded as “downregulated in a dose-dependent manner”. The “Bcl-2 expression (RT-PCR)” value with Bcl-2 [2] (MCF-7, 1.25 µM) is 0.88 fold; with Bcl-2 [2] (MCF-7, 2.5 µM) it was 0.68 fold; in the assay on Bcl-2 [2] (MCF-7, 5 µM), 0.49 fold. This molecule returned a 50% inhibitory concentration (IC50) with HUVEC normal cells of 7.8 ± 0.6 µM.
